{"source": "paper PMC4534804", "about": "“Pharmacokinetics of a multicomponent herbal preparation in healthy Chinese and African volunteers” (Scientific Reports, 2015)", "key": {"[1]": {"test": "Identification of prototype compounds and metabolites in human plasma after oral K-601 (UPLC-QTOF/MS, EIC peak height)", "type": "in vivo", "method": "(§1) Chromatographic separation was carried out at 25 °C on a Zorbax RRHD Eclipse Plus C18 column (2.1 × 50 mm, 1.8 μm). The mobile phase consisted of 0.1% formic acid solution (A) and ACN (B) using a gradient elution of 0–5% B at 0–6 min, 5–8% B at 6–15 min, 8–15% B at 15–20 min, 15–20% B at 20–30 min, 20–30% at 30–35 min, 30–35% at 35–45 min, 35–40% at 45–60 min. The flow rate was kept at 0.2 mL/min, and the sample volume injected was set at 5 μL. […] The parameters of operation were as follows: drying gas N2 flow rate, 10.0 L/min; temperature, 330 °C; nebulizer, 35 psig; capillary, 3000 V; skimmer, 60 V; OCT RFV, 250 V. Each sample was analyzed in both the positive and negative modes due to the selective sensitivities to different components of the formulation-providing better information for molecular formulae and structural identification. Mass spectra were recorded across the range m/z 100–1000 with accurate mass measurements.\nA total of six healthy male volunteers, ages ranging from 22–47 years took part in this study. Three of whom are Africans and three Chinese. […] None was also on any medication.\nBlood samples were withdrawn from subjects at the following time intervals, 0 hour (before taking medication and breakfast), 1, 2, 4, and 6 hours after taking the medication. These blood samples were taken by a qualified phlebotomist in the hospital. Each volunteer took 40 mL of same batch of the medication as a single dose. […] Details of subjects in the pharmacokinetic studies are provided (Table 5).\n(§2) All blood samples taken at each time were immediately centrifuged at 13000 rpm for 10 min, and the plasma separated and stored at −80 °C until analysis. Plasma samples were thawed at 37 °C before solid-phase extraction (SPE) treatment for UPLC-QTOF/MS analysis. The sample treatment procedure is schematically presented in Supplementary Figure S3."}, "[2]": {"test": "Pharmacokinetics of major prototype compounds in healthy Chinese and African volunteers after single oral K-601 (EIC peak area vs time)", "type": "in vivo, human", "conditions": "single oral 40 mL K-601; for Tmax: male, human, plasma, po, 40 mL", "method": "A total of six healthy male volunteers, ages ranging from 22–47 years took part in this study. Three of whom are Africans and three Chinese. All volunteers avoided the intake of alcohol/alcoholic beverages, coffee/beverages containing coffee for at least 12 hours prior to the study. None was also on any medication. All volunteers also fasted for 12 hours prior to the study and throughout the study period.\nBlood samples were withdrawn from subjects at the following time intervals, 0 hour (before taking medication and breakfast), 1, 2, 4, and 6 hours after taking the medication. These blood samples were taken by a qualified phlebotomist in the hospital. Each volunteer took 40 mL of same batch of the medication as a single dose. This study was approved by the Ethics Committee of the First Affiliated Hospital of Nanjing Medical University (2013-SRFA-078) and conducted under the guidelines of the Helsinki Declaration and the International Conference on Harmonization-Good Clinical Practices (ICH-GCP). Details of subjects in the pharmacokinetic studies are provided (Table 5).\nas §2\nPharmacokinetic analyses were done using the extracted ion chromatograms (EIC) of the most abundant compounds. The peak areas of derived from the EIC were plotted against time (h)."}, "human intestinal flora": {"tested_on": "human intestinal flora", "test": "Biotransformation and metabolism of K-601 by human fecal flora (anaerobic incubation)", "type": "in vitro ADME", "method": "as §1"}, "[3]": {"conditions": "human plasma after single oral 40 mL K-601, prototype compounds"}, "[4]": {"conditions": "human plasma after administration of K-601, metabolites"}}}
{"compound": "Caffeoyl-CH2-O-quinic acid [P9]", "values": [{"measurement": "Abund. (peak height in the EIC) of prototype compound in plasma", "setting": "[1]; [3]", "result": "0.03 ×10^4"}]}
{"compound": "COc1c(O[C@@H]2O[C@H](C(=O)O)[C@@H](O)[C@H](O)[C@H]2O)cc(O)c2c(=O)cc(-c3ccccc3)oc12", "note": "[P13, Wogonoside]", "values": [{"measurement": "Abund. (peak height in the EIC) of prototype compound in plasma", "setting": "[1]; [3]", "result": "0.42 ×10^4"}]}
{"compound": "Cc1cc(O)c2c(c1)C(=O)c1cc(C(=O)O)cc(O)c1C2=O", "note": "[P15, 6-Methyl-rhein]", "values": [{"measurement": "Abund. (peak height in the EIC) of prototype compound in plasma", "setting": "[1]; in vivo, po", "result": "0.06 ×10^4"}]}
{"compound": "O=C(/C=C/c1ccc(O)c(O)c1)O[C@@H]1C[C@](O)(C(=O)O)C[C@@H](O)[C@H]1O", "note": "[P7, Chlorogenic acid]", "values": [{"measurement": "Abund. (peak height in the EIC) of prototype compound in plasma", "setting": "[1]; [3]", "result": "0.03 ×10^4"}]}
{"compound": "COc1cc2c(cc1OC)[C@@H]1Cc3ccc(OC)c(OC)c3CN1CC2", "note": "[P2, Tetrahydropalmatine]", "values": [{"measurement": "Abund. (peak height in the EIC) of prototype compound in plasma", "setting": "[1]; [3]", "result": "0.03 ×10^4"}]}
{"compound": "C=C[C@H]1[C@H](O[C@@H]2O[C@H](CO)[C@@H](O)[C@H](O)[C@H]2O)OC=C(C(=O)O)[C@H]1CC(=O)O", "note": "[P6, Secologanoside]", "values": [{"measurement": "Abund. (peak height in the EIC) of prototype compound in plasma", "setting": "[1]; in vivo, po", "result": "0.02 ×10^4"}]}
{"compound": "COc1ccc2c(c1O)-c1c(O)c(OC)cc3c1[C@H](C2)[N+](C)(C)CC3", "note": "[P1, Magnoflorine]", "values": [{"measurement": "Abund. (peak height in the EIC) of prototype compound in plasma", "setting": "[1]; male, human, in vivo, po", "result": "6.52 ×10^4"}, {"measurement": "AUC comparison African vs Chinese volunteers (in words)", "setting": "[2]", "result": "better in the Chinese volunteers"}]}
{"compound": "COc1cc2c(cc1O)CC[n+]1cc3c(OC)c(OC)ccc3cc1-2", "note": "[P3, Jatrorrhizine]", "values": [{"measurement": "Abund. (peak height in the EIC) of prototype compound in plasma", "setting": "[1]; male, human, in vivo, po", "result": "3.53 ×10^4"}, {"measurement": "Tmax", "setting": "[2]; African volunteers", "result": 4, "unit": "h"}, {"measurement": "Tmax", "setting": "[2]; Chinese volunteers", "result": 1, "unit": "h"}, {"measurement": "AUC comparison African vs Chinese volunteers (in words)", "setting": "[2]", "result": "higher"}]}
{"compound": "Cc1cc(O)c2c(c1)C(=O)c1cc(O)cc(O)c1C2=O", "note": "[P12, Emodin]", "values": [{"measurement": "Abund. (peak height in the EIC) of prototype compound in plasma", "setting": "[1]; [3]", "result": "0.04 ×10^4"}]}
{"compound": "4-O-caffeoylquinic acid [P8]", "values": [{"measurement": "Abund. (peak height in the EIC) of prototype compound in plasma", "setting": "[1]; in vivo, po", "result": "0.04 ×10^4"}]}
{"compound": "COc1ccc2cc3[n+](cc2c1OC)CCc1cc2c(cc1-3)OCO2", "note": "[P5, Berberine]", "values": [{"measurement": "Abund. (peak height in the EIC) of prototype compound in plasma", "setting": "[1]; [3]", "result": "50.35 ×10^4"}, {"measurement": "Peak abundance (class) of prototype compound in plasma", "setting": "[1]; [3]", "result": "High (> 1.00 × 10^4, defined as major constituent, thus high-level)"}, {"measurement": "Tmax", "setting": "[2]; African volunteers", "result": 4, "unit": "h"}, {"measurement": "Tmax", "setting": "[2]; Chinese volunteers", "result": 1, "unit": "h"}, {"measurement": "AUC comparison African vs Chinese volunteers (in words)", "setting": "[2]", "result": "higher"}]}
{"compound": "O=C(O)c1cc(O)c2c(c1)C(=O)c1cccc(O)c1C2=O", "note": "[P14, Rhein]", "values": [{"measurement": "Abund. (peak height in the EIC) of prototype compound in plasma", "setting": "[1]; [3]", "result": "0.62 ×10^4"}]}
{"compound": "O=C1c2cccc(O)c2C(=O)c2c(O)cc(O)cc21", "note": "[M10]", "values": [{"measurement": "Abund. (peak height in the EIC) of metabolite in plasma", "setting": "[1]; [4]", "result": "0.02 ×10^4"}, {"measurement": "Peak abundance (class) of metabolite in plasma", "setting": "[1]; [4]", "result": "Low (<0.10 × 10^4 as trace constituent, thus low-level)"}]}
{"compound": "O=C(O)c1cc(O)c(O)c(O)c1O", "note": "[T1]", "values": [{"measurement": "Abund. (peak height in the EIC) of metabolite from human intestinal transformation", "setting": "human intestinal flora", "result": "0.05 ×10^4"}]}
{"compound": "O=c1c(O[C@@H]2O[C@H](CO)[C@H](O)[C@H](O)[C@H]2O)c(-c2ccc(O)c(O)c2)oc2cc(O)cc(O)c12", "note": "[P10, Hyperoside]", "values": [{"measurement": "Abund. (peak height in the EIC) of prototype compound in plasma", "setting": "[1]; [3]", "result": "0.05 ×10^4"}]}
{"compound": "COc1cc2c(cc1OC)-c1cc3ccc(OC)c(OC)c3c[n+]1CC2", "note": "[P4, Palmatine]", "values": [{"measurement": "Abund. (peak height in the EIC) of prototype compound in plasma", "setting": "[1]; [3]", "result": "12.63 ×10^4"}, {"measurement": "Peak abundance (class) of prototype compound in plasma", "setting": "[1]; [3]", "result": "High (> 1.00 × 10^4, defined as major constituent, thus high-level)"}, {"measurement": "Tmax", "setting": "[2]; African volunteers", "result": 4, "unit": "h"}, {"measurement": "Tmax", "setting": "[2]; Chinese volunteers", "result": 1, "unit": "h"}, {"measurement": "AUC comparison African vs Chinese volunteers (in words)", "setting": "[2]", "result": "higher"}]}
